US20230025865A1, “COMPOSITIONS AND METHODS FOR […] […] OF Bcl-2 AND Bcl-xL ANTAGONISTS” (The Regents of the University of Michigan, priority 2019, published 2023)

How the values were obtained:
[1] = stability of APG-1252 during formulation preparation and lyophilization process (HPLC); type: physicochemical; settings: final lyophilization product compared to original drug
Description: The contents of APG-1252 and its hydrolysis product BM-1244 were measured before and after formulation preparation and lyophilization process by method described above.

[2] = system: mantle cell lymphoma (B cell non-Hodgkin's lymphoma) cell line Mino, and Z138 and Rec; test: cytotoxicity, CellTiter96 AQueous cell proliferation assay; type: cell-based; settings: single drug, 72 h
Description: (§1) Cells were seeded in a 96 well plate with 3000 cells per well and culture for 24 h, the appropriate amount of drug in a serial dilution manner was added to each well. After incubation for 72 h, Cell Proliferation was detected by CellTiter96™ AQueous Nonradioactive Cell Proliferation Assay Kit.

[3] = system: erythroleukemic HEL, megakaryoblastic leukemic SET-2 and Ruxolitinib resistant HEL cell line; test: as above; type: cell-based; settings: single drug, 72 h, HEL and SET-2 cell lines
Description: as §1

[4] = system: small cell lung cancer (SCLC), colon, breast and acute lymphoblastic leukemia (ALL) cancer xenografts; settings: cited from earlier work
[5] = tissue distribution of APG-1252 and BMS-1244 (FIG. 15); type: in vivo, CD-1 IGS mice; settings: for 48 hours
Description: The APG-1252 and BMS-1244 concentration versus time curve in different tissues in CD-1 IGS mice.

Row | percentage of BM-1244 [1] | BMS-1244 relative to APG-1252 [5] | SMILES | cytotoxicity alone [2] | cytotoxicity alone [3] | combination with chemotherapeutic agents ([4]; in vivo) | tumor regression as single agent ([4]; twice weekly or weekly dose-schedule)
1 | 0.16% |  | Cc1c(S(C)(=O)=O)c(-c2cc(F)cc(N3CCN(c4ccc(NS(=O)(=O)c5ccc(N[C@H](CCN6CCC(C(=O)OCCCP(=O)(O)O)CC6)CSc6ccccc6)c(S(=O)(=O)C(F)(F)F)c5)cc4)CC3)c2)c(-c2ccc(Cl)cc2)n1C(C)C [APG-1252, (R)-(3-((1-(3-((4-(N-(4-(4-(3-(2-(4-chlorophenyl)-1-isopropyl-5-methyl-4-(methylsulfonyl)-1H-pyrrol-3-yl)-5-fluorophenyl)piperazin-1-yl)phenyl)sulfamoyl)-2-((trifluoromethyl)sulfonyl)phenyl)amino)-4-(phenylthio)butyl)piperidine-4-carbonyl)oxy)propyl)phosphonic acid] | similar | similar | strong synergy with the chemotherapeutic agents | complete and persistent tumor regression
2 |  | less than 10% | Cc1c(S(C)(=O)=O)c(-c2cc(F)cc(N3CCN(c4ccc(NS(=O)(=O)c5ccc(N[C@H](CCN6CCC(C(=O)O)CC6)CSc6ccccc6)c(S(=O)(=O)C(F)(F)F)c5)cc4)CC3)c2)c(-c2ccc(Cl)cc2)n1C(C)C [BM-1244, (R)-1-(3-((4-(N-(4-(4-(3-(2-(4-chlorophenyl)-1-isopropyl-5-methyl-4-(methylsulfonyl)-1H-pyrrol-3-yl)-5-fluorophenyl)piperazin-1-yl)phenyl)sulfamoyl)-2-((trifluoromethyl)sulfonyl)phenyl)amino)-4-(phenylthio)butyl)piperidine-4-carboxylic acid] |  |  |  | 
